Source: publication PMC7664216, “An Odorant Binding Protein (SaveOBP9) Involved in Chemoreception of the Wheat Aphid Sitobion avenae” (International Journal of Molecular Sciences, 2020)
Entries after “also recorded” stand apart in the source; their conditions may differ. Like-named read-outs stand apart in the source and are kept apart here.

What was measured:
SaveOBP9 = SaveOBP9 (Sitobion avenae, UniProt A0A1I9ZLB6); assay: Fluorescence competitive ligand binding assay with probe 1-NPN; settings: 1-NPN probe
Experimental: Methanol (spectrophotometric-grade) was used to prepare the standard solution of each tested ligand (Sigma Aldrich, St. Louis, MO, USA). The binding ability of 1-NPN was measured by adding 1-NPN (1 mM) into protein solution (2 μM L^−1) diluted with Tris-HCl (30 mM), and the final concentration was made to 0 to 20 μM L^−1 at room temperature.
The ligand’s binding with SaveOBP9 was conducted with three independent replicates.

Sitobion avenae = assay: Y-tube olfactometer behavioral bioassay; format: in vivo; settings: for Behavioral response of S. avenae: wingless adults, odor 0.10% (v/v) vs liquid paraffin control, pre-RNAi; for Post-RNAi behavioral response of S. avenae: after 3 days of dsSaveOBP9 feeding (50 ng/µL), compared to dsGFP and Control
Text: Behavioral responses of Sitobion avenae were examined by using a glass Y-tube olfactometer (base = 2.0 cm diameter by 14 cm length, arms = 2.0 cm diameter by 13 cm length) using 7 different volatile compounds (Sigma-Aldrich, St. Louis, MO, USA). Air was passed through the activated charcoal for filtration at the continuous rate of 0.5 L/min and humidified using deionized water followed by the splitting of air between two arms of the olfactometer. One arm contained liquid paraffin (control) and the other had the test ligand. In addition, both chambers were connected to the central arm of the Y-tube. An aliquot of odors and liquid paraffin were loaded on with the concentration of 0.10% (v/v). Aphids were then placed in the trunk. Each insect was allowed 15 min to respond to the treatment, and the numbers of aphids showing attraction, repulsion, or no response were counted. Three replications (20 wingless aphids in each replication) for each group were applied.
Y-tube bioassays were carried out before and after dietary RNAi application to confirm the SaveOBP9 gene-silencing outcome. Two treatments containing liquid paraffin and seven compounds (Ki < 10 μM), 2-ethyl1-hexanol, decanal, tetradecane, hexadecane, octanal, α-farnesene, and hexanal, were used. Three treatments containing Control, dsGFP feeding and dsRNA feeding were tested in behavioral trials after 3 days of feeding. For the post-RNAi bioassays, individuals were tested using the compounds: Tetradecane, octanal, decanal, and hexadecane. These four ligands were carefully chosen based on the observation of significant responses of S.avenae to these compounds in bioassays performed prior to the application of dietary RNAi.

AlinOBP1 = system: AlinOBP1; set-up: method as in PMID 21541988; settings: cited from earlier work
Aphis fabae = system: Aphis fabae; set-up: method as in PMID 18584254; settings: Black bean aphid Aphis fabae; cited from earlier work
SaveOBP3 = system: SaveOBP3; set-up: method as in PMID 22306433; settings: cited from earlier work
SaveOBP7 = system: SaveOBP7; set-up: method as in PMID 22306433; settings: cited from earlier work
SaveOBP2 = system: SaveOBP2; set-up: method as in PMID 22306433; settings: cited from earlier work

Sequence of SaveOBP9 (A0A1I9ZLB6 entry or part of it): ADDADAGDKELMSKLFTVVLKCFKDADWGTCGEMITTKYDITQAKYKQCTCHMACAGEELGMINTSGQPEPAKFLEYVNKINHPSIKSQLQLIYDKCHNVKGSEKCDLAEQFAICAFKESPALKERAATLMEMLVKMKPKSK

Row | Molecule | IC50 (SaveOBP9; pH 5.0, read-out: IC50) [µM] | Ki (SaveOBP9; pH 5.0, read-out: Ki) [µM] | IC50 (SaveOBP9; pH 7.4, read-out: IC50) [µM] | Ki (SaveOBP9; pH 7.4, read-out: Ki) [µM] | IC50 (SaveOBP9; IC50, pH 5.0) [µM] | IC50 (SaveOBP9; IC50, pH 7.4) [µM] | Ki (SaveOBP9; Ki, pH 5.0) [µM] | Ki (SaveOBP9; Ki, pH 7.4) [µM] | further results
1 | CC12CCC(CC1=O)C2(C)C (racemic) [(±)-Camphor] | 17.4 | 15.7 | 48.2 | 42.8 | – | – | – | – | –
2 | CC1=CCC2C(C1)C2(C)C (single isomer, unassigned; (+)) [(+)-3-Carene] | 39.9 | 36.1 | 14.7 | 13 | – | – | – | – | –
3 | C=CC(O)CCCCC (centres unmarked) [1-Octen-3-ol] | 34.2 | 30.9 | 24.2 | 21.5 | – | – | – | – | –
4 | CCCCC(CC)CO (centres unmarked) [2-Ethyl-1-hexanol] | 43.8 | 39.6 | 11.2 | 9.93 | – | – | – | – | Behavioral response of S. avenae (Sitobion avenae): did not show stimuli; Binding affinity (AlinOBP1): high binding affinity
5 | C=CCCN=C=S [3-Butenyl isothiocyanate] | – | – | – | – | 26.3 | 52.7 | 23.8 | 46.8 | –
6 | CC(=O)c1ccccc1 [Acetophenone] | 30.8 | 27.8 | 13 | 11.5 | – | – | – | – | –
7 | O=Cc1ccccc1 [Benzaldehyde] | – | – | – | – | 41 | 109 | 37 | 96.5 | –
8 | Cc1cc(C(C)(C)C)c(O)c(C(C)(C)C)c1 [Butylated Hydroxytoluene] | 8.8 | 7.95 | 45.6 | 40.5 | – | – | – | – | –
9 | CCCCCCCCCC=O [Decanal] | 19.8 | 17.9 | 9.95 | 8.84 | – | – | – | – | EAG response (Aphis fabae): significant electroantennography (EAG) response; Binding ability (SaveOBP3): None of the three SaveOBPs have the ability to bind; Binding ability (SaveOBP7): None of the three SaveOBPs have the ability to bind; Post-RNAi behavioral response of S. avenae (Sitobion avenae): non-significant preference; Behavioral response of S. avenae (Sitobion avenae): significantly showed attractive responses; also recorded: strongly attracted S. avenae; Binding ability (SaveOBP2): None of the three SaveOBPs have the ability to bind
10 | CCCCCCCCCCCCCCCC [Hexadecane] | 14.6 | 13.2 | 10.9 | 9.68 | – | – | – | – | Binding ability (SaveOBP3): None of the three SaveOBPs have the ability to bind; Binding ability (SaveOBP7): None of the three SaveOBPs have the ability to bind; Post-RNAi behavioral response of S. avenae (Sitobion avenae): non-significant preference; Behavioral response of S. avenae (Sitobion avenae): significantly showed attractive responses; also recorded: strongly attracted S. avenae; Binding ability (SaveOBP2): None of the three SaveOBPs have the ability to bind
11 | CCCCCC=O [Hexanal] | – | – | – | – | 16.8 | 8.23 | 15.2 | 7.31 | Behavioral response of S. avenae (Sitobion avenae): did not show stimuli
12 | C=CC(C)(O)CCC=C(C)C (centres unmarked) [Linalool] | – | – | – | – | 11.8 | 24.1 | 10.7 | 21.4 | –
13 | COC(=O)c1ccccc1O [Methyl salicylate] | – | – | – | – | 24.2 | 13.4 | 21.9 | 11.9 | –
14 | c1ccc2ccccc2c1 [Naphthalene] | – | – | – | – | 30.3 | 13 | 27.4 | 11.5 | –
15 | CCCCCCCCC=O [Nonanal] | 12.3 | 11.1 | 39.8 | 35.4 | – | – | – | – | –
16 | CCCCCCCC=O [Octanal] | 20.3 | 18.3 | 8.79 | 7.8 | – | – | – | – | EAG response (Aphis fabae): significant electroantennography (EAG) response; Binding ability (SaveOBP3): relatively moderate binding ability; Binding ability (SaveOBP7): no binding ability; Post-RNAi behavioral response of S. avenae (Sitobion avenae): non-significant preference; Behavioral response of S. avenae (Sitobion avenae): significantly showed attractive responses; also recorded: strongly attracted S. avenae; Binding ability (SaveOBP2): relatively moderate binding ability

Row | Molecule | IC50 (SaveOBP9; pH 5.0, read-out: IC50) [µM] | Ki (SaveOBP9; pH 5.0, read-out: Ki) [µM] | IC50 (SaveOBP9; pH 7.4, read-out: IC50) [µM] | Ki (SaveOBP9; pH 7.4, read-out: Ki) [µM] | IC50 (SaveOBP9; IC50, pH 5.0) [µM] | IC50 (SaveOBP9; IC50, pH 7.4) [µM] | Ki (SaveOBP9; Ki, pH 5.0) [µM] | Ki (SaveOBP9; Ki, pH 7.4) [µM] | further results
17 | CCCCCCCCCCCCCCC [Pentadecane] | 15.1 | 13.7 | 12.8 | 11.4 | – | – | – | – | –
18 | C=C(C)[C@@H]1CC=C(C)CC1 [S-(−)-Limonene] | 11.5 | 10.4 | 32.1 | 28.5 | – | – | – | – | –
19 | CCCCCCCCCCCCCC [Tetradecane] | 11.9 | 10.7 | 7.96 | 7.07 | – | – | – | – | Post-RNAi behavioral response of S. avenae (Sitobion avenae): non-significant preference; Behavioral response of S. avenae (Sitobion avenae): significantly showed attractive responses; also recorded: strongly attracted S. avenae
20 | CC/C=C\CCO [cis-3-Hexen-1-ol] | – | – | – | – | 36.9 | 13.2 | 33.3 | 11.8 | –
21 | CC/C=C\CCOC(C)=O [cis-3-Hexenyl acetate] | – | – | 29.7 | 26.4 | – | – | – | – | –
22 | CCC/C=C/C=O [trans-2-Hexen-1-al] | – | – | – | – | 21.6 | 41.9 | 19.5 | 37.2 | –
23 | CCC/C=C/CO [trans-2-Hexen-1-ol] | – | – | – | – | 21.7 | 14.5 | 19.6 | 12.9 | –
24 | C=CC(=C)CC/C=C(\C)CCC=C(C)C [trans-β-farnesene] | – | – | – | – | – | – | – | – | Binding ability (SaveOBP3): could bind; Binding ability (SaveOBP7): could bind
25 | C=C/C(C)=C/C/C=C(\C)CCC=C(C)C [α-Farnesene] | 9.51 | 8.59 | 10.3 | 9.11 | – | – | – | – | Behavioral response of S. avenae (Sitobion avenae): did not show stimuli
26 | CC1=CCC2CC1C2(C)C (stereo not drawn) [α-Pinene] | – | – | – | – | 27.2 | 38 | 24.6 | 33.7 | –
27 | CC1=CC[C@@H](C(C)(C)O)CC1 [α-Terpineol] | – | – | – | – | 37.4 | 26.2 | 33.8 | 23.3 | –
28 | C=C1CCC2CC1C2(C)C (stereo not drawn) [β -Pinene] | – | – | – | – | 27.7 | 37.4 | 25.1 | 33.2 | –
29 | C=C1CC/C=C(\C)CC[C@@H]2[C@@H]1CC2(C)C [β-Caryophyllene] | – | – | – | – | 622 | 52.4 | 562 | 46.6 | –
30 | C=CC(=C)CCC=C(C)C [β-Myrcene] | 10.7 | 9.67 | 12.2 | 10.8 | – | – | – | – | –
31 | (+)-Limonene oxide | 37.5 | 33.9 | 24.3 | 21.6 | – | – | – | – | –
